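The compound was tested at five concentrations on cells cultured in 96-well plates, with a 48-hour exposure period. At the GI50, growth is halved. TGI: total growth inhibition.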
Columns and labels:
Assay in all cases: NCI anticancer screen, dose series, 48 h
[1] = test system: 786-0 renal
[2] = test system: A498 renal
[3] = test system: A549 NSCLC
[4] = test system: ACHN renal
[5] = test system: BT-549 breast
[6] = test system: CCRF-CEM leukemia
[7] = test system: COLO 205 colon
[8] = test system: DU-145 prostate
[9] = test system: EKVX NSCLC
[10] = test system: HCC-2998 colon
[11] = test system: HCT-116 colon
[12] = test system: HCT-15 colon
[13] = test system: HL-60(TB) leukemia
[14] = test system: HOP-92 NSCLC
[15] = test system: HS 578T breast
[16] = test system: HT29 colon
[17] = test system: IGROV1 ovarian
[18] = test system: K-562 leukemia
[19] = test system: KM12 colon
[20] = test system: LOX IMVI melanoma
[21] = test system: M14 melanoma
[22] = test system: MALME-3M melanoma
[23] = test system: MCF7 breast
[24] = test system: MDA-MB-231 breast
[25] = test system: MDA-MB-435
[26] = test system: MOLT-4 leukemia
[27] = test system: NCI-H226 lung
[28] = test system: NCI-H23 lung
[29] = test system: NCI-H460 lung
[30] = test system: NCI-H522 lung
[31] = test system: NCI/ADR-RES ovarian
[32] = test system: OVCAR-3 ovarian
[33] = test system: OVCAR-4 ovarian
[34] = test system: OVCAR-5 ovarian
[35] = test system: OVCAR-8 ovarian
[36] = test system: PC-3 prostate
[37] = test system: RPMI-8226 leukemia
[38] = test system: RXF 393 renal
[39] = test system: SF-268 CNS
[40] = test system: SF-295 CNS
[41] = test system: SF-539 CNS
[42] = test system: SK-MEL-2 melanoma
[43] = test system: SK-MEL-28 melanoma
[44] = test system: SK-MEL-5 melanoma
[45] = test system: SK-OV-3 ovarian
[46] = test system: SN12C renal
[47] = test system: SNB-19 CNS
[48] = test system: SNB-75 CNS
[49] = test system: SR leukemia
[50] = test system: SW-620 colon
[51] = test system: T-47D breast
[52] = test system: TK-10 renal
[53] = test system: U251 CNS
[54] = test system: UACC-257 melanoma
[55] = test system: UACC-62 melanoma
[56] = test system: UO-31 renal
[57] = test system: CAKI-1 renal
[58] = test system: HOP-62 NSCLC

SMILES: CC1CCN(CCCCCOc2ccc3oc4cc(Cl)ccc4c(=O)c3c2)CC1
- GI50 [1]: 6.29 µM
- TGI [1]: 12.7 µM
- GI50 [2]: 5.97 µM
- TGI [2]: 12.7 µM
- GI50 [3]: 7.49 µM
- TGI [3]: 14.4 µM
- GI50 [4]: 8.01 µM
- TGI [4]: 14.7 µM
- GI50 [5]: 6.54 µM
- TGI [5]: 13.1 µM
- GI50 [6]: 5.76 µM
- TGI [6]: 14.2 µM
- GI50 [7]: 6.09 µM
- TGI [7]: 14.1 µM
- GI50 [8]: 7.14 µM
- TGI [8]: 13.9 µM
- GI50 [9]: 7.03 µM
- TGI [9]: 14.3 µM
- GI50 [10]: 6.25 µM
- TGI [10]: 13.1 µM
- GI50 [11]: 2.42 µM
- TGI [11]: 7.86 µM
- GI50 [12]: 1.32 µM
- TGI [12]: 4.1 µM
- GI50 [13]: 2.81 µM
- TGI [13]: 10.5 µM
- GI50 [14]: 6.51 µM
- TGI [14]: 14.8 µM
- GI50 [15]: 7.32 µM
- TGI [15]: 17.8 µM
- GI50 [16]: 1.72 µM
- TGI [16]: 6.2 µM
- GI50 [17]: 6.71 µM
- TGI [17]: 15.3 µM
- GI50 [18]: 1.58 µM
- TGI [18]: 6.09 µM
- GI50 [19]: 6.26 µM
- TGI [19]: 14.4 µM
- GI50 [20]: 4.18 µM
- TGI [20]: 10.9 µM
- GI50 [21]: 1.15 µM
- TGI [21]: 2.63 µM
- GI50 [22]: 8.41 µM
- TGI [22]: 15.3 µM
- GI50 [23]: 5.9 µM
- TGI [23]: 14.2 µM
- GI50 [24]: 7.6 µM
- TGI [24]: 14.6 µM
- GI50 [25]: 1.55 µM
- TGI [25]: 5.23 µM
- GI50 [26]: 2.87 µM
- TGI [26]: 10.3 µM
- GI50 [27]: 9.42 µM
- TGI [27]: 20.2 µM
- GI50 [28]: 7.36 µM
- TGI [28]: 14.6 µM
- GI50 [29]: 6.63 µM
- TGI [29]: 13.9 µM
- GI50 [30]: 9.09 µM
- TGI [30]: 18 µM
- GI50 [31]: 8.14 µM
- TGI [31]: 21.8 µM
- GI50 [32]: 7 µM
- TGI [32]: 14.2 µM
- GI50 [33]: 6.22 µM
- TGI [33]: 13.6 µM
- GI50 [34]: 6.63 µM
- TGI [34]: 13.5 µM
- GI50 [35]: 7.95 µM
- TGI [35]: 16 µM
- GI50 [36]: 6.89 µM
- TGI [36]: 16.4 µM
- GI50 [37]: 5.73 µM
- TGI [37]: 15.9 µM
- GI50 [38]: 5.75 µM
- TGI [38]: 12.7 µM
- GI50 [39]: 7.4 µM
- TGI [39]: 15.8 µM
- GI50 [40]: 6.8 µM
- TGI [40]: 13.2 µM
- GI50 [41]: 5.9 µM
- TGI [41]: 12.3 µM
- GI50 [42]: 9.3 µM
- TGI [42]: 17.5 µM
- GI50 [43]: 7.07 µM
- TGI [43]: 13.7 µM
- GI50 [44]: 5.36 µM
- TGI [44]: 11.3 µM
- GI50 [45]: 8.45 µM
- TGI [45]: 15.8 µM
- GI50 [46]: 6.49 µM
- TGI [46]: 13.1 µM
- GI50 [47]: 8.03 µM
- TGI [47]: 15.2 µM
- GI50 [48]: 6.59 µM
- TGI [48]: 13 µM
- GI50 [49]: 1.41 µM
- TGI [49]: 5.18 µM
- GI50 [50]: 6.16 µM
- TGI [50]: 13.3 µM
- GI50 [51]: 6.86 µM
- TGI [51]: 16.4 µM
- GI50 [52]: 7.46 µM
- TGI [52]: 14.8 µM
- GI50 [53]: 5.69 µM
- TGI [53]: 12.4 µM
- GI50 [54]: 1.33 µM
- TGI [54]: 3.22 µM
- GI50 [55]: 2.24 µM
- TGI [55]: 7.73 µM
- GI50 [56]: 5.7 µM
- TGI [56]: 11.8 µM

SMILES: O=C(CF)N(O)c1ccc(/C=C/c2ccccc2)cc1
- GI50 [1]: 1.98 µM
- TGI [1]: 7.14 µM
- GI50 [2]: 0.694 µM
- TGI [2]: 2.27 µM
- GI50 [3]: 1.17 µM
- TGI [3]: > 100 µM
- GI50 [4]: 0.736 µM
- TGI [4]: 30 µM
- GI50 [5]: 4.37 µM
- TGI [5]: > 100 µM
- GI50 [57]: 0.609 µM
- TGI [57]: 2.85 µM
- GI50 [6]: 2.16 µM
- TGI [6]: > 100 µM
- GI50 [7]: 5.83 µM
- TGI [7]: > 100 µM
- GI50 [8]: 1.48 µM
- TGI [8]: 6.96 µM
- GI50 [9]: 15.8 µM
- TGI [9]: > 100 µM
- GI50 [10]: 1.64 µM
- TGI [10]: 7.69 µM
- GI50 [11]: 0.805 µM
- TGI [11]: 6.63 µM
- GI50 [12]: 13.3 µM
- TGI [12]: > 100 µM
- GI50 [13]: 0.605 µM
- TGI [13]: 13.6 µM
- GI50 [58]: 5.91 µM
- TGI [58]: 32.2 µM
- GI50 [14]: 3.97 µM
- TGI [14]: 35.7 µM
- GI50 [15]: 24.1 µM
- TGI [15]: > 91.5 µM
- GI50 [16]: 3.52 µM
- TGI [16]: > 100 µM
- GI50 [17]: 2.53 µM
- TGI [17]: 13 µM
- GI50 [18]: 7.92 µM
- TGI [18]: > 100 µM
- GI50 [19]: 16.5 µM
- TGI [19]: > 100 µM
- GI50 [20]: 2.53 µM
- TGI [20]: > 100 µM
- GI50 [21]: 3.82 µM
- TGI [21]: > 100 µM
- GI50 [22]: 24.6 µM
- TGI [22]: > 100 µM
- GI50 [23]: 0.304 µM
- TGI [23]: > 100 µM
- GI50 [24]: 21.8 µM
- TGI [24]: > 100 µM
- GI50 [25]: 8.48 µM
- TGI [25]: > 100 µM
- GI50 [26]: 2.72 µM
- TGI [26]: > 100 µM
- GI50 [27]: 0.77 µM
- TGI [27]: 3.24 µM
- GI50 [28]: 3.39 µM
- TGI [28]: 98.4 µM
- GI50 [29]: 0.322 µM
- TGI [29]: > 100 µM
- GI50 [30]: 12.8 µM
- TGI [30]: > 100 µM
- GI50 [31]: 2.52 µM
- TGI [31]: > 100 µM
- GI50 [32]: 3.28 µM
- TGI [32]: 19.7 µM
- GI50 [33]: 5.49 µM
- TGI [33]: > 66.9 µM
- GI50 [34]: 8.26 µM
- TGI [34]: > 100 µM
- GI50 [35]: 2.77 µM
- TGI [35]: > 96.2 µM
- GI50 [36]: 5.6 µM
- TGI [36]: > 100 µM
- GI50 [37]: 21.3 µM
- TGI [37]: > 100 µM
- GI50 [38]: 3.13 µM
- TGI [38]: 25.1 µM
- GI50 [39]: 2.78 µM
- TGI [39]: > 100 µM
- GI50 [40]: 1.74 µM
- TGI [40]: 11.4 µM
- GI50 [41]: 8.17 µM
- TGI [41]: 52.9 µM
- GI50 [42]: 27.1 µM
- TGI [42]: > 100 µM
- GI50 [43]: > 40.4 µM
- TGI [43]: > 100 µM
- GI50 [44]: 14.4 µM
- TGI [44]: > 100 µM
- GI50 [45]: 7.53 µM
- TGI [45]: 32.1 µM
- GI50 [46]: 2.67 µM
- TGI [46]: > 63.5 µM
- GI50 [47]: 8.65 µM
- TGI [47]: > 100 µM
- GI50 [48]: 3.41 µM
- TGI [48]: 31.9 µM
- GI50 [49]: 0.257 µM
- TGI [49]: 4.04 µM
- GI50 [50]: 1.3 µM
- TGI [50]: > 100 µM
- GI50 [51]: 1.06 µM
- TGI [51]: > 34.1 µM
- GI50 [52]: 3.38 µM
- TGI [52]: 27.5 µM
- GI50 [53]: 1.82 µM
- TGI [53]: > 60 µM
- GI50 [54]: 1.67 µM
- TGI [54]: 5.59 µM
- GI50 [55]: 1.81 µM
- TGI [55]: 10.7 µM
- GI50 [56]: 3.58 µM
- TGI [56]: 26.2 µM
